Experimental data from USRE48461E1, “Modulation of androgen receptor expression” (Ionis Pharmaceuticals, Inc., priority 2012, dated 2021).
Oligonucleotides are written 5' to 3', each unit as a sugar letter and its base; * is a phosphorothioate linkage, no mark a phosphodiester; rarer units and linkages stand in square brackets, end groups in braces. Plain capitals give the bases only. e = 2'-O-(2-methoxyethyl) (MOE); k = constrained ethyl (cEt); [5mC] = 5-methylcytosine; d = 2'-deoxy (DNA)

Assays:
AR mRNA [1] = test: Dose-dependent antisense inhibition of human AR in HuVEC cells (electroporation, qRT-PCR RTS3559, IC50); assay type: cell-based; conditions: HuVEC
In short: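 HuVEC cells dosed with antisense oligonucleotides by electroporation and treated approximately 16 hours. AR mRNA quantified by real-time qPCR with primer probe set RTS3559 and normalised to total RNA by RIBOGREEN; IC50 from dose-response.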

AR mRNA [2] = test: Antisense inhibition of human AR in HuVEC cells, single concentration (electroporation, qRT-PCR RTS3559); assay type: cell-based; conditions: ~24 h
In short: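 HuVEC cells electroporated with antisense oligonucleotides at a single concentration. AR mRNA quantified by qRT-PCR using human primer-probe set RTS3559 and normalised to total RNA content by RIBOGREEN.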

[3] = Table 29, electroporation, approximately 16 hours

| Substance | percent inhibition of AR (AR mRNA [1]; 31.25 nM, ~16 h, Table 14) [%] | percent inhibition of AR (AR mRNA [1]; 62.5 nM, ~16 h, Table 14) [%] | percent inhibition of AR (AR mRNA [1]; 125.0 nM, ~16 h, Table 14) [%] | percent inhibition of AR (AR mRNA [1]; 500.0 nM, ~16 h, Table 14) [%] | percent inhibition of AR (AR mRNA [1]; 1000.0 nM, ~16 h, Table 14) [%] | IC50 (AR mRNA [1]; ~16 h, Table 14) [nM] | % inhibition (AR mRNA [2]; 1,000 nM ASO, Table 13) [%] | percent inhibition of AR, 46.9 nM (AR mRNA [1]; [3]) [%] | percent inhibition of AR, 187.5 nM (AR mRNA [1]; [3]) [%] | percent inhibition of AR, 750.0 nM (AR mRNA [1]; [3]) [%] | percent inhibition of AR, 3000.0 nM (AR mRNA [1]; [3]) [%] | IC50 (AR mRNA [1]; [3]) [nM] | % inhibition (AR mRNA [2]; 500 nM ASO, Table 16) [%] | % inhibition (AR mRNA [2]; 500 nM ASO, Table 17) [%] |
| --- | --- | --- | --- | --- | --- | --- | --- | --- | --- | --- | --- | --- | --- | --- |
| 569238 (antisense eG*kT*kT*kG*dA*dT*dT*dT*dA*dA*dT*kG*kG*kT*eT*eG) [compound 569238] | 4 | 32 | 33 | 71 | 88 | 202 | 51 | – | – | – | – | – | – | – |
| 583542 (antisense kA*k[5mC]*kA*dG*d[5mC]*dA*d[5mC]*dT*dG*dG*dA*dG*d[5mC]*kG*kG*k[5mC]) [compound 583542] | – | – | – | – | – | – | – | 9 | 28 | 47 | 66 | 900 | 45 | – |
| 583556 (antisense kA*kA*k[5mC]*dT*dT*d[5mC]*dA*d[5mC]*d[5mC]*dG*dA*dA*dG*kA*kG*kG) [compound 583556] | – | – | – | – | – | – | – | 19 | 47 | 68 | 66 | 340 | 43 | – |
| 583559 (antisense kA*kG*kT*d[5mC]*dT*dT*dT*dA*dG*d[5mC]*dA*dG*d[5mC]*kT*kT*kT) [compound 583559] | – | – | – | – | – | – | – | 30 | 49 | 63 | 80 | 220 | 52 | – |
| 583564 (antisense kG*k[5mC]*kT*dT*d[5mC]*d[5mC]*dT*d[5mC]*d[5mC]*dG*dA*dG*dT*k[5mC]*kT*kT) [compound 583564] | – | – | – | – | – | – | – | 16 | 33 | 55 | 74 | 520 | 45 | – |
| 583566 (antisense k[5mC]*k[5mC]*kT*dT*dG*d[5mC]*dT*dT*d[5mC]*d[5mC]*dT*d[5mC]*d[5mC]*kG*kA*kG) [compound 583566] | – | – | – | – | – | – | – | 0 | 28 | 50 | 74 | 730 | 47 | – |
| 583567 (antisense kG*k[5mC]*kA*d[5mC]*dT*dT*dT*d[5mC]*d[5mC]*dT*dT*dG*d[5mC]*kT*kT*k[5mC]) [compound 583567] | – | – | – | – | – | – | – | 17 | 34 | 60 | 79 | 430 | 52 | – |
| 583571 (antisense kT*k[5mC]*kA*dG*dT*d[5mC]*d[5mC]*dT*dA*d[5mC]*d[5mC]*dA*dG*kG*k[5mC]*kA) [compound 583571] | – | – | – | – | – | – | – | 18 | 36 | 53 | 59 | 800 | 43 | – |
| 583583 (antisense kG*kA*k[5mC]*dT*dG*dA*dG*dG*d[5mC]*dA*dG*d[5mC]*dT*kG*k[5mC]*kG) [compound 583583] | – | – | – | – | – | – | – | 21 | 31 | 49 | 64 | 790 | 45 | – |
| 583584 (antisense k[5mC]*k[5mC]*kG*dA*d[5mC]*dT*dG*dA*dG*dG*d[5mC]*dA*dG*k[5mC]*kT*kG) [compound 583584] | – | – | – | – | – | – | – | 24 | 44 | 52 | 73 | 410 | 44 | – |
| 583608 (antisense kG*k[5mC]*kT*dA*dG*d[5mC]*dT*d[5mC]*dG*d[5mC]*d[5mC]*d[5mC]*dG*k[5mC]*kT*k[5mC]) [compound 583608] | – | – | – | – | – | – | – | 12 | 46 | 67 | 76 | 350 | – | 51 |
| 583609 (antisense k[5mC]*kA*kG*d[5mC]*dT*dA*dG*d[5mC]*dT*d[5mC]*dG*d[5mC]*d[5mC]*k[5mC]*kG*k[5mC]) [compound 583609] | – | – | – | – | – | – | – | 16 | 48 | 63 | 73 | 360 | – | 51 |
